Experimental data taken from ChEMBL document CHEMBL3132757, “A new class of fluorinated 5-pyrrolidinylsulfonyl isatin caspase inhibitors for PET imaging of apoptosis” (Medchemcomm, 2013).

Tests used:
Caspase-8 = Caspase-8 (Homo sapiens, UniProt Q14790); test: Inhibition of recombinant human caspase-8 expressed in Escherichia coli using Ac-IETD-AMC as substrate preincubated for 30 mins before substrate addition measured after 2 hrs
Caspase-7 = biological target: T1, Caspase-7 (Homo sapiens, UniProt P55210); test: Inhibition of recombinant human caspase-7 expressed in Escherichia coli using Ac-DEVD-AMC as substrate preincubated for 30 mins before substrate addition measured after 2 hrs
T1 sequence (P55210 whole entry): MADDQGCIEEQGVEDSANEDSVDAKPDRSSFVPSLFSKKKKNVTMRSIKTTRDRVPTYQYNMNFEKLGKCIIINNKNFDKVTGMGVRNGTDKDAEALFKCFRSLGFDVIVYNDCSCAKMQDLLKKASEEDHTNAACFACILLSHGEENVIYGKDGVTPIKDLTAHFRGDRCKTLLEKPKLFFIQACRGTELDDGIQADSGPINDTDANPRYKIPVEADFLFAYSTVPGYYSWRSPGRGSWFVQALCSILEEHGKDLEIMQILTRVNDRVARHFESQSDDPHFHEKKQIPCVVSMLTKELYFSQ

Caspase-6 = biological target: T2, Caspase-6 (Homo sapiens, UniProt P55212); test: Inhibition of recombinant human caspase-6 expressed in Escherichia coli using Ac-VEID-AMC as substrate preincubated for 30 mins before substrate addition measured after 2 hrs
T2 sequence (P55212 whole entry): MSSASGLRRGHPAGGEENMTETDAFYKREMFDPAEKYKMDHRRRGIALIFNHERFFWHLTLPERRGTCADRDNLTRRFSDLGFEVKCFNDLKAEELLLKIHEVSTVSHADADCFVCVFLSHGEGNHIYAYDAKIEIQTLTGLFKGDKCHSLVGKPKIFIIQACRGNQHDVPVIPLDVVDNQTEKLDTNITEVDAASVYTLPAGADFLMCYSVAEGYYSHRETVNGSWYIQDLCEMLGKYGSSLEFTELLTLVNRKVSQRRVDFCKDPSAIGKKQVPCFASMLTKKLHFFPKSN

Caspase-3 = biological target: T3, Caspase-3 (Homo sapiens, UniProt P42574); test: Inhibition of recombinant human caspase-3 expressed in Escherichia coli using Ac-DEVD-AMC as substrate preincubated for 30 mins before substrate addition measured after 2 hrs
T3 sequence (P42574 whole entry): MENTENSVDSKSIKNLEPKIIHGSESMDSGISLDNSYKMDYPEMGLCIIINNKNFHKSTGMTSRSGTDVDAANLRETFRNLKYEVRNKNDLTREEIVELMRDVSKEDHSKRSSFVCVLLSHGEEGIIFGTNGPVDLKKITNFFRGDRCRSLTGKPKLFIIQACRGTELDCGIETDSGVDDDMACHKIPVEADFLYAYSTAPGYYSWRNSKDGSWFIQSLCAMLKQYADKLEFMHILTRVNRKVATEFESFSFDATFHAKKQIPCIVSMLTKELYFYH

Caspase-1 = biological target: T4, Caspase-1 (Homo sapiens, UniProt P29466); test: Inhibition of recombinant human caspase-1 expressed in Escherichia coli using Ac-YVAD-AMC as substrate preincubated for 30 mins before substrate addition measured after 2 hrs
T4 sequence (P29466 whole entry): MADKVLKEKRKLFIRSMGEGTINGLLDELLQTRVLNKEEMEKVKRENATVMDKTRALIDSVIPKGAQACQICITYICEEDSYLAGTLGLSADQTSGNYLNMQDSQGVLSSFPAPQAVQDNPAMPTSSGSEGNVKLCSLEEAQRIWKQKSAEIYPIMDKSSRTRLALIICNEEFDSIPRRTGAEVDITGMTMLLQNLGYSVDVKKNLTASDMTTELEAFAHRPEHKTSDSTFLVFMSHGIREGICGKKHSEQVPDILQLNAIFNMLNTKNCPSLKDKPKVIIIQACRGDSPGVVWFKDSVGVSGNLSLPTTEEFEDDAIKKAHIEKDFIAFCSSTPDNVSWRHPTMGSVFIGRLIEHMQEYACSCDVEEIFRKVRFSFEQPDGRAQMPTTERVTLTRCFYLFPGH

[1] = Lipophilicity, log P of the compound by HPLC method; type: physicochemical

Sequence of Caspase-8 (Q14790 217-374 limits assumed): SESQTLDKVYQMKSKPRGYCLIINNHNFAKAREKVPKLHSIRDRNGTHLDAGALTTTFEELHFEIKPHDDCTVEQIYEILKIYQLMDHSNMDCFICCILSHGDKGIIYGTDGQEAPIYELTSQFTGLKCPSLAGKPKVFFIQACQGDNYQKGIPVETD
Sequence of Caspase-8 (Q14790 385-479 limits assumed): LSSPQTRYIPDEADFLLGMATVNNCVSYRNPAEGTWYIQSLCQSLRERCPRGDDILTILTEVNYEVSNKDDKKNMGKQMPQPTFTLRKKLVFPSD

| SMILES | IC50 (Caspase-8) [µM] | IC50 (Caspase-7) [µM] | IC50 (Caspase-6) [µM] | IC50 (Caspase-3) [µM] | IC50 (Caspase-1) [µM] | logP [1] |
| --- | --- | --- | --- | --- | --- | --- |
| O=C1C(=O)N(Cc2ccc(F)cc2)c2ccc(S(=O)(=O)N3CCC[C@H]3CF)cc21 | > 10 | 0.014 | > 10 | 0.0152 | > 10 | 2.5 |
| O=C1C(=O)N(Cc2ccc(OCCF)cc2)c2ccc(S(=O)(=O)N3CCC[C@H]3COc3ccccc3)cc21 | > 10 |  | > 10 | 0.0061 | > 10 | 3.78 |
| O=C1C(=O)N(Cc2ccc([N+](=O)[O-])cc2)c2ccc(S(=O)(=O)N3CCC[C@H]3CF)cc21 | > 10 | 0.0112 | > 10 | 0.0063 | > 10 | 2.39 |
| O=C1C(=O)N(Cc2cccc(I)c2)c2ccc(S(=O)(=O)N3CCC[C@H]3CF)cc21 | > 10 | 0.0218 | > 10 | 0.0116 | 1.7 | 3.21 |
| O=C1C(=O)N(Cc2cccc([N+](=O)[O-])c2)c2ccc(S(=O)(=O)N3CCC[C@H]3CF)cc21 | > 10 | 0.0165 | > 10 | 0.0128 | 4.69 | 2.28 |
| O=C1C(=O)N(Cc2ccc(OCCF)cc2)c2ccc(S(=O)(=O)N3CCC[C@H]3CF)cc21 | > 10 | 0.0414 | > 10 | 0.0192 | > 10 | 2.33 |
| O=C1C(=O)N(Cc2nnnn2Cc2ccccc2)c2ccc(S(=O)(=O)N3CCC[C@H]3CF)cc21 | > 10 | 0.0253 | > 10 | 0.0044 | 1.88 | 1.94 |
| O=C1C(=O)N(Cc2ccccc2)c2ccc(S(=O)(=O)N3CCC[C@H]3CF)cc21 | > 10 | 0.0204 | > 10 | 0.0139 | > 10 | 2.61 |
| O=C1C(=O)N(Cc2ccc(Br)cc2)c2ccc(S(=O)(=O)N3CCC[C@H]3CF)cc21 | > 10 | 0.0159 | > 10 | 0.0062 | > 10 | 3.11 |
| O=C1C(=O)N(Cc2ccc(OCCF)cc2)c2ccc(S(=O)(=O)N3CC4CNCC4C3)cc21 (stereo unspecified) | > 10 | 3.51 | > 10 | 2.21 | > 10 | 1.19 |
| COc1ccc(CN2C(=O)C(=O)c3cc(S(=O)(=O)N4CCC[C@H]4CF)ccc32)cc1 | > 10 | 0.0096 | > 10 | 0.0137 | > 10 | 2.65 |
| O=C1C(=O)N(Cc2ccc(Cl)cc2)c2ccc(S(=O)(=O)N3CCC[C@H]3CF)cc21 | > 10 | 0.0142 | > 10 | 0.0071 | > 10 | 2.96 |
| O=C1C(=O)N(Cc2ccccc2I)c2ccc(S(=O)(=O)N3CCC[C@H]3CF)cc21 | > 10 | 0.024 | 3.88 | 0.0096 | 0.522 | 3.25 |
| COC[C@@H]1CCCN1S(=O)(=O)c1ccc2c(c1)C(=O)C(=O)N2Cc1ccc(OCCF)cc1 | > 10 | 0.0046 | > 10 | 0.0083 | > 10 | 2.08 |
| O=C1C(=O)N(Cc2ccccc2[N+](=O)[O-])c2ccc(S(=O)(=O)N3CCC[C@H]3CF)cc21 | > 10 | 0.0198 | 5.08 | 0.0031 | 0.672 | 2.28 |
| O=C1C(=O)N(Cc2ccc(I)cc2)c2ccc(S(=O)(=O)N3CCC[C@H]3CF)cc21 | > 10 | 0.0054 | 3.79 | 0.0081 | > 10 | 3.31 |
| COC[C@@H]1CCCN1S(=O)(=O)c1ccc2c(c1)C(=O)C(=O)N2Cc1ccc(OC)cc1 | > 10 | 0.0061 | > 10 | 0.0176 | > 10 | 2.2 |
